Source: EP0552765B1, “Benzimidazoles, pharmaceutical compositions containing them and process for their preparation” (Dr. Karl Thomae GmbH, priority 1992, dated 1993)
pIC50: −log10 of the molar value. Structures can show the parent of a compound that is named as a salt.

Target: Angiotensin II-Rezeptor
Experiment: Angiotensin II receptor binding (displacement of [125I]-Angiotensin II from rat lung homogenate)
Parameters: species or system Ratte
Conditions: Rattenlunge homogenate; 50 pM [125I]-Angiotensin II; 60 Min. at 37°C; IC50 from dose-response curve
Procedure: Methodenbeschreibung Angiotensin II-Rezeptorbindung
Das Gewebe (Rattenlunge) wird in Tris-Puffer (50 mMol Tris, 150 mMol NaCl, 5 mMol EDTA, pH 7.40) homogenisiert und zweimal je 20 Min. bei 20.000 x g zentrifugiert. Das endgültige Pellet wird in Inkubations-Puffer (50 mMol Tris, 5 mMol MgCl2, 0,2 % BSA, pH 7,40) 1:75, bezogen auf das Feuchtgewicht des Gewebes, resuspendiert. Je 0,1 ml Homogenat wird für 60 Min. bei 37°C mit 50 pM [125^I]-Angiotensin II (NEN, Dreieich, FRG) und steigenden Konzentrationen der Testsubstanz in einem Gesamtvolumen von 0,25 ml inkubiert. Die Inkubation wird durch rasche Filtration durch Glasfiber-Filtermatten beendet. Die Filter werden je 4 ml eiskaltem Puffer (25 mMol Tris, 2.5 mMol MgCl2, 0,1 % BSA, pH 7,40) gewaschen. Die gebundene Radioaktivität wird in einem Gamma-Counter ermittelt. Aus der Dosis-Wirkungskurve wird der entsprechende IC50-Wert ermittelt.

Row | SMILES | pIC50
1 | CCCc1nc2c(C)cc(-c3cn(C)cn3)cc2n1Cc1ccc(-c2ccccc2C(=O)O)cc1 [Substanz A, 4'-[(2-n-Propyl-4-methyl-6-(1-methyl-imidazol-4-yl)-benzimidazol-1-yl)-methyl]-biphenyl-2-carbonsäure, reference compound] | 8.92
2 | CCCc1nc2c(C)cc(-c3cn(CC(N)=O)cn3)cc2n1Cc1ccc(-c2ccccc2C(=O)O)cc1 [Substanz F, 4'-[(2-n-Propyl-4-methyl-6-(1-aminocarbonylmethyl-imidazol-4-yl)-benzimidazol-1-yl)-methyl]-biphenyl-2-carbonsäure] | 8.47
3 | CCCc1nc2c(C)cc(-c3cn(CCCN(C)C)cn3)cc2n1Cc1ccc(-c2ccccc2C(=O)O)cc1 [Substanz G, 4'-[(2-n-Propyl-4-methyl-6-(1-(3-dimethylaminopropyl)-imidazol-4-yl)-benzimidazol-1-yl)-methyl]-biphenyl-2-carbonsäure-dihydrochlorid-pentahydrat] | 8.89

Further compounds by rising pIC50, results first:

Row | pIC50 | SMILES
4 | 7.40 | CCCc1nc2c(C)cc(-c3coc(C)n3)cc2n1Cc1ccc(-c2ccccc2C(=O)O)cc1 [Substanz C, 4'-[(2-n-Propyl-4-methyl-6-(2-methyl-oxazol-4-yl)-benzimidazol-1-yl)-methyl]-biphenyl-2-carbonsäure]
5 | 7.82 | CCCc1nc2c(C)cc(-c3cn(C4CCCCCC4)cn3)cc2n1Cc1ccc(-c2ccccc2C(=O)O)cc1 [Substanz E, 4'-[(2-n-Propyl-4-methyl-6-(1-cycloheptyl-imidazol-4-yl)-benzimidazol-1-yl)-methyl]-biphenyl-2-carbonsäure]
6 | 8.00 | CCOc1nc2ccc(-c3cn(C(C)C)cn3)cc2n1Cc1ccc(-c2ccccc2C(=O)O)cc1 [Substanz D, 4'-[(2-Ethoxy-6-(1-isopropyl-imidazol-4-yl)-benzimidazol-1-yl)-methyl]-biphenyl-2-carbonsäure]
